In paper PMC9653804, “Multifunctional Derivatives of Spiropyrrolidine Tethered Indeno-Quinoxaline Heterocyclic Hybrids as Potent Antimicrobial, Antioxidant and Antidiabetic Agents: Design, Synthesis, In Vitro and In Silico Approaches” (Molecules, 2022):
In brackets after ≈: the same amount, converted by molar mass.

Key:
[1] = DPPH free radical scavenging activity; conditions: for IC50: DPPH radical scavenging
Description: DPPH, the stable artificial free radicals, has been widely used for the measurement of free radical scavenging capacity of the compounds in ethanol and aqueous systems. Briefly, 2 mL DPPH solution (0.2 mM, in 95% ethanol) was incubated with 2 mL different concentrations of compounds solution. Then, the reaction mixture was shaken and incubated in the dark for 40 min at room temperature. The absorbance was immediately recorded at 517 nm against ethanol with a spectrophotometer (Metash, model UV-5200, Shanghai Xiwen Biotech. Co., Ltd, Shanghai, China). The DPPH free radical scavenging rate was calculated using the equation:DPPH scavenging activity (%) = A0 − A1/A0 × 100 where A0 was the absorbance of the control reaction (containing all reagents except the tested compound), and A1 was the absorbance of the test reaction (containing all reagents with the tested compound). The percentage of DPPH radical scavenging activity was plotted against the sample concentration to acquire the IC50 value, defined as the concentration of sample necessary to cause 50% inhibition. Radical scavenging activity (RSA) was calculated from the IC50 value as the equation: RSA = pIC50 = −lg[IC50]. The smaller the IC50 value, the larger is the RSA value and the higher is the antioxidant activity.

Candida krusei ATCC 6258 = test: Antifungal activity (MIC, MFC) against C. krusei; assay type: cell-based; conditions: C. krusei ATCC 6258, '-' = No activity; for MFC / MIC: Pichia kudriavzevii, ATCC6258
[2] = Ferric reducing power assay (FRAP); conditions: relative to standard Trolox
Description: The FRAP assay was used to determine the AC of the products by the reduction of Fe(III) and Fe (II). Briefly, Fe(III) was reduced to Fe(II), and Fe(II) was mixed with TPTZ to form a blue complex with strong absorption peak at 593 nm at pH = 3.6 condition. Acetate buffer (pH = 3.6), TPTZ solution (10 mM, in 40 mM hydrochloric acid) and FeCl3 solution (20 mM, in water) were mixed in a ratio of 10:1:1 to prepare FRAP working solution. The products solution (0.5 mL) was mixed with 4.0 mL FRAP working solution, and reacted at 37 °C for 30 min in the dark, and the absorbance at 593 nm was immediately recorded with a spectrophotometer. The result was expressed as the equivalent amount of Trolox per mole of the samples (mol TE/mol).

[3] = system: Pseudomonas aeruginosa ATCC 27853; test: Antimicrobial activity (MIC, MBC) against P. aeruginosa; assay type: cell-based; conditions: P. aeruginosa ATCC 27853; '-' = No activity
[4] = system: Escherichia coli ATCC 25922; test: Antimicrobial activity (MIC, MBC) against E. coli; assay type: cell-based; conditions: E. coli ATCC 25922; '-' = No activity
[5] = Radical scavenging activity ABTS; conditions: for IC50: ABTS radical scavenging
Description: The ABTS assay was performed as previously described by Tuberoso et al.. ABTS^+ radical was generated by oxidation of ABTS with potassium persulfate. The blue–green ABTS was produced through the reaction between 2 mM ABTS and […] potassium persulfate in water. The mixture was left to stand in the dark for 12 to 16 h before use. The ABTS solution was diluted with methanol to an absorbance of 0.700 ± 0.005 at 734 nm. Then 2 mL of diluted ABTS solution was mixed with 100 μL of samples and absorbance was measured after 1 min incubation at room temperature. A standard curve was obtained by using Trolox as standard solution. The results were expressed as μM Trolox equivalent.
The mixture of 7 mmol/L aqueous ABTS solution with 2.45 mmol/L potassium persulfate solution constitutes a stable ABTS^+ stock solution that was allowed to stand in the dark and at room temperature for 12 to 16 h before use. A 1 mL sample of the diluted ABTS solution (adjusted to 0.7 ± 0.02 at […]) was added to 10 μL of each product. The absorbance was determined after 6 min. The percentage inhibition of the ABTS˙ radical was calculated from the following equation:% inhibition = (Abscontrol − Abstest)/Abscontrol × 100
Abs control: the control absorbance.
Abs test: the absorbance of the test sample after 6 min.

[6] = system: Staphylococcus aureus ATCC 25923; test: Antimicrobial activity (MIC, MBC) against S. aureus; assay type: cell-based; conditions: S. aureus ATCC 25923; for MBC/MIC: bactericidal ≤ 4, bacteriostatic > 4; for MIC: Staphylococcus aureus, ATCC25923, '-' = No activity
[7] = system: Micrococccus luteus NCIMB 8166; test: Antimicrobial activity (MIC, MBC) against M. luteus; assay type: cell-based; conditions: M. luteus NCIMB 8166; '-' = No activity
[8] = Ferric reducing power assay (FRAP)
[9] = system: Candida albicans ATCC 90028; test: Antifungal activity (MIC, MFC) against C. albicans; assay type: cell-based; conditions: C. albicans ATCC 90028, '-' = No activity; for MFC/MIC: fungicidal ≤ 4, fungistatic > 4

SMILES | IC50 [1] [µM] | DPPH scavenging activity, fold better than Trolox ([1]; relative to standard Trolox) [fold] | MFC/MIC (Candida krusei ATCC 6258) | MFC (Candida krusei ATCC 6258) [mM] | MIC (Candida krusei ATCC 6258) [mM] | melting point [°C] | FRAP activity, fold higher than Trolox [2] | MBC/MIC [3] | MBC/MIC [4] | IC50 [5] [µM] | ABTS scavenging activity, fold higher than Trolox ([5]; relative to standard Trolox) [fold] | MBC/MIC [6] | MIC [6] [mM] | MBC/MIC [7] | IC50 [8] [µM] | MFC/MIC [9] | MFC ([9]; Candida albicans, ATCC90028) [mM] | MIC ([9]; Candida albicans, ATCC90028) [mM]
CN1C(=O)CC2(C1=O)C(c1ccc(Cl)cc1)CN(C)C21c2ccccc2-c2nc3ccccc3nc21 (stereo not drawn) [5e, Spiro [2,11″]indeno-[1,2b]-quinoxaline-spiro-[3,3′]-N-methylsuccinimide-4-(4-chlorophenyl)hexahydro-1H-pyrrolidines] | 6.12 ± 0.01 | 5.1 | 1 | 31.4 (≈ 15.6 mg/mL) | 31.4 (≈ 15.6 mg/mL) | 182 to 184 | about 6.5 fold | 4 | 2 | 12.2 ± 0.18 | ~8 | 16 | 15.7 (≈ 7.78 mg/mL) | 1 | 6.54 ± 0.18 | 1 | 62.9 (≈ 31.1 mg/mL) | 62.9 (≈ 31.1 mg/mL)
CN1C(=O)CC2(C1=O)C(c1cccs1)CN(C)C21c2ccccc2-c2nc3ccccc3nc21 (stereo not drawn) [5h, Spiro [2,11″]indeno-[1,2b]-quinoxaline-spiro-[3,3′]-N-methylsuccinimide-4-(4-thiophenyl)hexahydro-1H-pyrrolidines] | 19.1 ± 0.23 | – | 1 | 66.7 (≈ 31.1 mg/mL) | 66.7 (≈ 31.1 mg/mL) | 203 to 205 | about 6.5 fold | 2 | 2 | 18.04 ± 0.13 | – | 16 | 33.3 (≈ 15.6 mg/mL) | 1 | 6.32 ± 0.68 | 4 | – | 66.7 (≈ 31.1 mg/mL)
CN1C(=O)CC2(C1=O)C(c1cccc(Cl)c1)CN(C)C21c2ccccc2-c2nc3ccccc3nc21 (stereo not drawn) [5i, Spiro [2,11″]indeno-[1,2b]-quinoxaline-spiro-[3,3′]-N-methylsuccinimide-4-(3-chloro-phenyl)hexahydro-1H-pyrrolidines] | 7.8 ± 0.32 | – | 1 | 31.4 (≈ 15.6 mg/mL) | 31.4 (≈ 15.6 mg/mL) | 193 to 195 | about 6.5 fold | 4 | 2 | 11.4 ± 0.36 | – | 4 | – | 1 | 5.98 ± 0.52 | – | – | –
